According to US12459951B2, “Compounds that interact with RAS superfamily proteins for treatment of cancers, inflammatory diseases, rasopathies, and fibrotic disease” (SHY Therapeutics, LLC, priority 2022, dated 2025):

Legend:
IL6 = experiment: IL-6 Quantification Assay (ELISA), LPS-stimulated RAW 264.7; format: cell-based; set-up: inhibition: dose or concentration left out as unconfirmed; conditions: Mus musculus, RAW264.7; read-out: IL-6: % inh.
KRas wild type = experiment: Ras GTP Binding Domain Inhibition Assay (Ras Superfamily Assay); conditions: for KRas wild type + SOS: % inh.: with SOS; for KRas wild type: % inh.: without SOS
In short: (§1)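 Ni-plate capture of His-tagged protein (10-30 μg/mL, o/n 4° C); cpd 20 μM or dilution series, 1% DMSO, 3 h RT ± Sos 556-1049 last h; 100 nM Cy-labelled GTP 45 min RT; 3× wash; fluorescence read.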

KRas G12D mutant = experiment: as above; conditions: for KRas G12D mutant + SOS: % inh.: with SOS; for KRas G12D mutant: % inh.: without SOS
In short: as §1

Rac-1 = molecular target: T1, Rac-1 (Homo sapiens, UniProt P63000); experiment: as above; conditions: read-out: Rac-1: % inh.
T1 construct: made in house
In short: as §1

Structure (SMILES) | inhibition (IL6) | KRas wild type + SOS: % inh. (KRas wild type; at 20 μM) | KRas wild type: % inh. (KRas wild type; at 20 μM) | KRas G12D mutant + SOS: % inh. (KRas G12D mutant; at 20 μM) | KRas G12D mutant: % inh. (KRas G12D mutant; at 20 μM) | inhibition at 20 µM (Rac-1) | KRas wild type + SOS: % inh. (KRas wild type; 20 μM compound) | KRas wild type: % inh. (KRas wild type; 20 μM compound) | KRas G12D mutant + SOS: % inh. (KRas G12D mutant; 20 μM compound) | KRas G12D mutant: % inh. (KRas G12D mutant; 20 μM compound)
Cc1c(-c2ccn(C)n2)cn2nc(-c3nccn3C)nc(Nc3ccc(C(F)(F)F)cn3)c12 [Compound 233, 5-Methyl-2-(1-methyl-1H-imidazol-2-yl)-6-(1-methyl-1H-pyrazol-3-yl)-N-(5-(trifluoromethyl)pyridin-2-yl)pyrrolo[2,1-f][1,2,4]triazin-4-amine] | 25 to 49% | D (D = 76-100% inhibition) | D (D = 76-100% inhibition) | D (D = 76-100% inhibition) | D (D = 76-100% inhibition) | 76 to 100% |  |  |  | 
Cc1c(-c2ccn(C)n2)cn2nc(-c3nccn3C)nc(Nc3ccc(C(F)F)cn3)c12 [Compound 234, N-(5-(Difluoromethyl)pyridin-2-yl)-5-methyl-2-(1-methyl-1H-imidazol-2-yl)-6-(1-methyl-1H-pyrazol-3-yl)pyrrolo[2,1-f][1,2,4]triazin-4-amine] | 1 to 24% | D (D = 76-100% inhibition) | C (C = 50-75% inhibition) | D (D = 76-100% inhibition) | D (D = 76-100% inhibition) | 76 to 100% |  |  |  | 
CCNC(=O)c1c(-c2ccn(C)n2)cn2nc(-c3nccn3C)nc(Nc3cc(OC)ccn3)c12 [Compound 173, N-Ethyl-4-((4-methoxypyridin-2-yl)amino)-2-(1-methyl-1H-imidazol-2-yl)-6-(1-methyl-1H-pyrazol-3-yl)pyrrolo[2,1-f][1,2,4]triazine-5-carboxamide] | 75 to 100% |  |  |  |  | 50 to 75% | D (D = 76-100% inhibition) | C (C = 50-75% inhibition) | C (C = 50-75% inhibition) | B (B = 26-49% inhibition)
COc1cnc(Nc2nc(-c3nccn3C)nn3cc(-c4ccn(C)n4)c(C)c23)cc1C [Compound 236, N-(5-Methoxy-4-methylpyridin-2-yl)-5-methyl-2-(1-methyl-1H-imidazol-2-yl)-6-(1-methyl-1H-pyrazol-3-yl)pyrrolo[2,1-f][1,2,4]triazin-4-amine] | 0% | B (B = 26-49% inhibition) | B (B = 26-49% inhibition) | B (B = 26-49% inhibition) | C (C = 50-75% inhibition) | 50 to 75% |  |  |  | 
Cc1c(-c2ccn(C)n2)cn2nc(-c3nccn3C)nc(Nc3cc(C(C)(C)O)ccn3)c12 [Compound 240, 2-(2-((5-Methyl-2-(1-methyl-1H-imidazol-2-yl)-6-(1-methyl-1H-pyrazol-3-yl)pyrrolo[2,1-f][1,2,4]triazin-4-yl)amino)pyridin-4-yl)propan-2-ol] | 50 to 74% | D (D = 76-100% inhibition) | D (D = 76-100% inhibition) | D (D = 76-100% inhibition) | D (D = 76-100% inhibition) | 76 to 100% |  |  |  | 
COc1ccnc(Nc2nc(-c3nccn3C)nn3cc(-c4ccn(C)n4)c(C(=O)NCC(F)(F)F)c23)c1 [Compound 174, 4-((4-Methoxypyridin-2-yl)amino)-2-(1-methyl-1H-imidazol-2-yl)-6-(1-methyl-1H-pyrazol-3-yl)-N-(2,2,2-trifluoro-ethyl)pyrrolo[2,1-f][1,2,4]triazine-5-carboxamide] | 1 to 24% |  |  |  |  | 50 to 75% | B (B = 26-49% inhibition) | B (B = 26-49% inhibition) | B (B = 26-49% inhibition) | B (B = 26-49% inhibition)
Cc1c(-c2ccn(C)n2)cn2nc(-c3nccn3C)nc(Nc3ccc(N(C)C)cn3)c12 [Compound 227, N5,N5-Dimethyl-N2-(5-methyl-2-(1-methyl-1H-imidazol-2-yl)-6-(1-methyl-1H-pyrazol-3-yl)pyrrolo[2,1-f][1,2,4]triazin-4-yl)pyridine-2,5-diamine] | 50 to 74% | D (D = 76-100% inhibition) | D (D = 76-100% inhibition) | D (D = 76-100% inhibition) | D (D = 76-100% inhibition) | 76 to 100% |  |  |  | 
Cc1c(-c2ccn(C)n2)cn2nc(-c3nccn3C)nc(Nc3cc(N4CCOCC4)ccn3)c12 [Compound 222, 5-Methyl-2-(1-methyl-1H-imidazol-2-yl)-6-(1-methyl-1H-pyrazol-3-yl)-N-(4-morpholinopyridin-2-yl)pyrrolo[2,1-f][1,2,4]triazin-4-amine] | 50 to 74% | D (D = 76-100% inhibition) | D (D = 76-100% inhibition) | D (D = 76-100% inhibition) | D (D = 76-100% inhibition) | 76 to 100% |  |  |  | 
Cc1c(-c2ccn(C)n2)cn2nc(-c3nccn3C)nc(Nc3ccc(N4CCCC4)cn3)c12 [Compound 228, 5-Methyl-2-(1-methyl-1H-imidazol-2-yl)-6-(1-methyl-1H-pyrazol-3-yl)-N-(5-(pyrrolidin-1-yl)pyridin-2-yl)pyrrolo[2,1-f][1,2,4]triazin-4-amine] | 25 to 49% | C (C = 50-75% inhibition) | C (C = 50-75% inhibition) | C (C = 50-75% inhibition) | D (D = 76-100% inhibition) | 76 to 100% |  |  |  | 
COc1ccnc(Nc2nc(-c3nccn3C)nn3cc(-c4ccn(C)n4)c(C(=O)N4CCCC4)c23)c1 [Compound 178, (4-((4-Methoxypyridin-2-yl)amino)-2-(1-methyl-1H-imidazol-2-yl)-6-(1-methyl-1H-pyrazol-3-yl)pyrrolo[2,1-f][1,2,4]triazin-5-yl)(pyrrolidin-1-yl)methanone] | 50 to 74% |  |  |  |  | 76 to 100% | D (D = 76-100% inhibition) | D (D = 76-100% inhibition) | D (D = 76-100% inhibition) | D (D = 76-100% inhibition)
Cc1c(-c2ccn(C)n2)cn2nc(-c3nccn3C)nc(O)c12 [Compound 172, 5-Methyl-2-(1-methyl-1H-imidazol-2-yl)-6-(1-methyl-1H-pyrazol-3-yl)pyrrolo[2,1-f][1,2,4]triazin-4-ol] | 1 to 24% |  |  |  |  | 26 to 49% | B (B = 26-49% inhibition) | B (B = 26-49% inhibition) | B (B = 26-49% inhibition) | B (B = 26-49% inhibition)
COc1ccc(Nc2nc(-c3nccn3C)nn3cc(-c4ccn(C)n4)c(C)c23)nc1 [Compound 224, N-(5-Methoxypyridin-2-yl)-5-methyl-2-(1-methyl-1H-imidazol-2-yl)-6-(1-methyl-1H-pyrazol-3-yl)pyrrolo[2,1-f][1,2,4]triazin-4-amine] | 50 to 74% | D (D = 76-100% inhibition) | D (D = 76-100% inhibition) | D (D = 76-100% inhibition) | D (D = 76-100% inhibition) | 76 to 100% |  |  |  | 
Cc1c(-c2ccn(C)n2)cn2nc(-c3nccn3C)nc(Nc3ccc(-n4ccnc4C)cn3)c12 [Compound 243, 5-Methyl-N-(5-(2-methyl-1H-imidazol-1-yl)pyridin-2-yl)-2-(1-methyl-1H-imidazol-2-yl)-6-(1-methyl-1H-pyrazol-3-yl)pyrrolo[2,1-f][1,2,4]triazin-4-amine] | 0% | D (D = 76-100% inhibition) | D (D = 76-100% inhibition) | D (D = 76-100% inhibition) | D (D = 76-100% inhibition) | 76 to 100% |  |  |  | 
COc1ccnc(N(C)c2nc(-c3nccn3C)nn3cc(-c4ccn(C)n4)c(C)c23)c1 [Compound 223, N-(4-Methoxypyridin-2-yl)-N,5-dimethyl-2-(1-methyl-1H-imidazol-2-yl)-6-(1-methyl-1H-pyrazol-3-yl)pyrrolo[2,1-f][1,2,4]triazin-4-amine] | 0% | 0 (0 = 0% inhibition) | B (B = 26-49% inhibition) | A (A = 1-25% inhibition) | B (B = 26-49% inhibition) | 26 to 49% |  |  |  | 
CCOc1ccc(Nc2nc(-c3nccn3C)nn3cc(-c4ccn(C)n4)c(C)c23)nc1 [Compound 229, N-(5-Ethoxypyridin-2-yl)-5-methyl-2-(1-methyl-1H-imidazol-2-yl)-6-(1-methyl-1H-pyrazol-3-yl)pyrrolo[2,1-f][1,2,4]triazin-4-amine] | 26 to 49% | D (D = 76-100% inhibition) | C (C = 50-75% inhibition) | D (D = 76-100% inhibition) | D (D = 76-100% inhibition) | 76 to 100% |  |  |  | 
COc1ccnc(Nc2nc(-c3nccn3C)nn3cc(-c4ccn(C)n4)c(C(=O)NC4CC4)c23)c1 [Compound 175, N-Cyclopropyl-4-((4-methoxypyridin-2-yl)amino)-2-(1-methyl-1H-imidazol-2-yl)-6-(1-methyl-1H-pyrazol-3-yl)pyrrolo[2,1-f][1,2,4]triazine-5-carboxamide] | 75 to 100% |  |  |  |  | 26 to 49% | D (D = 76-100% inhibition) | D (D = 76-100% inhibition) | D (D = 76-100% inhibition) | C (C = 50-75% inhibition)
